These results are taken from US8198273B2, “Compounds and methods for kinase modulation, and indications therefor” (Plexxikon Inc., priority 2009, dated 2012).

Data set [1] has as its target B-Raf (Homo sapiens, UniProt P15056). In words: B-Raf biochemical kinase inhibition (AlphaScreen, biotin-MEK1 substrate). Conditions: 100 μM ATP. Put shortly: (§1)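 Eight-point compound series (made from a 0.1 mM DMSO stock) tested against each Raf enzyme with biotin-MEK1 substrate and 100 μM final ATP.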
Background: In Alpha technology, singlet oxygen from a donor bead excites a nearby acceptor bead.

The target of data set [2] is c-Raf-1 (Homo sapiens, UniProt P04049). In words: c-Raf-1 biochemical kinase inhibition (AlphaScreen, biotin-MEK1 substrate). As to conditions: 100 μM ATP. Put shortly:
as §1

For data set [3], the system named is Colo205 xenograft. Put plainly: Colo205 xenograft mouse model, tumor growth inhibition. It counts as in vivo. Conditions: COLO 205, 336 h, female nu/nu mice, 10 mg/kg daily for fourteen days. On the procedure:
Tumor growth is monitored to approximately 100 mg size, and mice are distributed to treatment groups such that the mean tumor burden within a group is within 10% of the overall mean tumor burden. […] Mice are observed daily, with tumor burden and body weights measured twice a week. Animals with tumor burden above 1500-2000 mg and any animals in moribund condition are euthanized. The average tumor growth of vehicle control group mice is compared to the average tumor growth of the test compound mice. Percent tumor growth inhibition is calculated as 100×[(tumor growth control-tumor growth test compound)/tumor growth control].

Data set [4] is described as follows: Relative solubility by turbidity in aqueous buffers of varying pH. In kind it is physicochemical. As to conditions: for turbidity threshold (L, M, H) 7.4: HEPES pH 7.4; for turbidity threshold (L, M, H) 4.5: SIF pH 4.5; for turbidity threshold (L, M, H) 6.8: SIF pH 6.8; for turbidity threshold (L, M, H) 1.4: buffer pH 1.4 (SGF). Put shortly:
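Turbidity endpoint: concentration where optical density at 490, 535 and 650 nm exceeds 0.01, three-wavelength average used. Buffers at pH 1.5, 4.5, 6.8 and 7.4; DMSO serial dilutions of 25 mM stock spiked 1 μL into 99 μL buffer. Low <31.3, moderate 31.3–250, high >250 μM.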

Data set [5] deals with CYP3A4(BFC) (Homo sapiens, UniProt P08684). Put plainly: CYP3A4(BFC) inhibition (fluorescent substrate). Conditions: read-out: Cyp IC50 3A4(BFC). In kind it is in vitro ADME. Put shortly: (§2)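 Compound, from a 100 mM DMSO stock and diluted 1:1 over 10 points in co-factor mix, was incubated at 37° C with enzyme and a known substrate. Decrease in fluorescent product against concentration gave the IC50.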
CYP3A4(BFC), sequence (P08684 whole entry): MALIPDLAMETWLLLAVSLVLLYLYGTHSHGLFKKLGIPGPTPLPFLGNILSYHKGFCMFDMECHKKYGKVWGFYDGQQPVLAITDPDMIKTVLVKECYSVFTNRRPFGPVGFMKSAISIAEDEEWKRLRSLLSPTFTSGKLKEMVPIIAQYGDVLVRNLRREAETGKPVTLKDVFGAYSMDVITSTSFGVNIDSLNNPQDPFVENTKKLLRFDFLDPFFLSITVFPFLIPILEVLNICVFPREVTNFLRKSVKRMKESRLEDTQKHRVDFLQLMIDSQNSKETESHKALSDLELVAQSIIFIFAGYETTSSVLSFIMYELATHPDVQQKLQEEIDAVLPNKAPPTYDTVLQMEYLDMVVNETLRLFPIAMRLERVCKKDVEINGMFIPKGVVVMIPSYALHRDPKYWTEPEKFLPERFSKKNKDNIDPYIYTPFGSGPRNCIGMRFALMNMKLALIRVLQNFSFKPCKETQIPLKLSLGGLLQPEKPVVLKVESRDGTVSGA

Data set [6] concerns the target CYP3A4(BQ) (Homo sapiens, UniProt P08684). In words: CYP3A4(BQ) inhibition (fluorescent substrate). Conditions: read-out: Cyp IC50 3A4(BQ). It counts as in vitro ADME. Put shortly:
as §2

The target in data set [7] is T1, A-Raf (Homo sapiens, UniProt P10398).
T1 sequence (P10398 1-606): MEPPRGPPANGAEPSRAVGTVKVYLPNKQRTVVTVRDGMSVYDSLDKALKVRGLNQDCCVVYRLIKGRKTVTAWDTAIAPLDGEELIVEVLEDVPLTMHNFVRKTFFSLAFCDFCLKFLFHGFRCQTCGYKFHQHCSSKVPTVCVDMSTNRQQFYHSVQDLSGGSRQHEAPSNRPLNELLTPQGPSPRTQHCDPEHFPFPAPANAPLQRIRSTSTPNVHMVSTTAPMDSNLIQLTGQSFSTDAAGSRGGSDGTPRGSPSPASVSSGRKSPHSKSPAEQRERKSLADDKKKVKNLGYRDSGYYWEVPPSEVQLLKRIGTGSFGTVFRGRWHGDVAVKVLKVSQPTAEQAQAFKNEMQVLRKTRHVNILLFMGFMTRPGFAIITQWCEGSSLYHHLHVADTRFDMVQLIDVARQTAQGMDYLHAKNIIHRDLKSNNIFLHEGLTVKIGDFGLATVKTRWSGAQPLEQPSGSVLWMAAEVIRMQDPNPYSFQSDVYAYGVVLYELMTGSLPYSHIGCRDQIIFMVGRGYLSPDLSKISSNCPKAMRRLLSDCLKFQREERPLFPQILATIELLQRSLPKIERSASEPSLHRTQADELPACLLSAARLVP
Put plainly: A-Raf biochemical kinase inhibition (AlphaScreen, biotin-MEK1 substrate). Conditions: 100 μM ATP. Put shortly: as §1

pIC50: −log10 of the molar value.

c-Raf-1, sequence (P04049 whole entry): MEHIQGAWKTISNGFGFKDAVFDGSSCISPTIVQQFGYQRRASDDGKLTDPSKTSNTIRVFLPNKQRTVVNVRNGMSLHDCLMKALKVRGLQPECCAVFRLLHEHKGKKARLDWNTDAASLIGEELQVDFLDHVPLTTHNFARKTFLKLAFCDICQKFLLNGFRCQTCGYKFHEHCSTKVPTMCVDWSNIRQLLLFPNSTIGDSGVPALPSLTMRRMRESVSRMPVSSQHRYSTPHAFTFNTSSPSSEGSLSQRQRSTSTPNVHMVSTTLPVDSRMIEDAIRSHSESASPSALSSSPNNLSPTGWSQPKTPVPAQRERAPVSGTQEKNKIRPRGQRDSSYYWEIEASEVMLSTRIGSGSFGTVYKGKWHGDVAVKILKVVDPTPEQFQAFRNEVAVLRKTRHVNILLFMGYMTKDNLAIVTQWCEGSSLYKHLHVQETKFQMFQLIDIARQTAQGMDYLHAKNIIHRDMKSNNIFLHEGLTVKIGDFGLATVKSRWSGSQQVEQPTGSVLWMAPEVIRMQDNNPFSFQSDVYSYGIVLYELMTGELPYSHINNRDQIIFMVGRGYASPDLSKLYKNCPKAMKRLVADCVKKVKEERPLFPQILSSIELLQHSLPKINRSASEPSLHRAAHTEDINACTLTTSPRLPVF
CYP3A4(BQ), sequence (P08684 whole entry): as the sequence (P08684 whole entry) above
B-Raf, sequence (P15056 whole entry): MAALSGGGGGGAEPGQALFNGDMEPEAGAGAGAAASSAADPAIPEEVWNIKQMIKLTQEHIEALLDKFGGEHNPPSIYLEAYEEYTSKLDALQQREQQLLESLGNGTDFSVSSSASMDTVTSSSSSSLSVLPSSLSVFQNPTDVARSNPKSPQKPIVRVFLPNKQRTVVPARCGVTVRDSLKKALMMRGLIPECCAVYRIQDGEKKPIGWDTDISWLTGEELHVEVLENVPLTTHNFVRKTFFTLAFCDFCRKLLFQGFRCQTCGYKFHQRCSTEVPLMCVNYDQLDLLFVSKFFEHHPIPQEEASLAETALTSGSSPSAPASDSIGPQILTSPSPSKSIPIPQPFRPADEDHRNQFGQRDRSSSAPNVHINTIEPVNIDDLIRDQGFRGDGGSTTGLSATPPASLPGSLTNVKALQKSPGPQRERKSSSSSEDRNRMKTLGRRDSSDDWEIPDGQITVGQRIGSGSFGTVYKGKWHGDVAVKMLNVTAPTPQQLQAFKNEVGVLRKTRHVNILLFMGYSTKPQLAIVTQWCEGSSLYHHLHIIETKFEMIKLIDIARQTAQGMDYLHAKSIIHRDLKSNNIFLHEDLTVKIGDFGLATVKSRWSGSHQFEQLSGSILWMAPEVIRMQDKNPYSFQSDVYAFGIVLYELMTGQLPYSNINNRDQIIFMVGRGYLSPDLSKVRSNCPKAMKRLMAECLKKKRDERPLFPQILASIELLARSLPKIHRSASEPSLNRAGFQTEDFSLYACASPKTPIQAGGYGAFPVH

What is called pIC50 is the negative decadic logarithm of the IC50, by convention in mol/L. As usually defined, the inhibition in vivo is the relative decrease from the control value, in per cent. Consider `COc1ccnc2[nH]cc(C(=O)c3c(F)ccc(NS(=O)(=O)c4ccccc4F)c3F)c12` [P-2021, N-[2,4-Difluoro-3-(4-methoxy-1H-pyrrolo[2,3-b]pyridine-3-carbonyl)-phenyl]-2-fluoro-benzenesulfonamide], for which, in data set [1], the negative-log IC50 (pIC50) was greater than 7.00. The pIC50 in data set [2] was greater than 8.00. Further, the inhibition in vivo at 10 mg/kg in data set [3] was determined as 35%. Moreover, in data set [4], the “turbidity threshold (L, M, H) 7.4” value was “M (moderate solubility if the threshold concentration is 31.3 μM to 250 μM)”; the “turbidity threshold (L, M, H) 4.5” value was “M (moderate solubility if the threshold concentration is 31.3 μM to 250 μM)”; the “turbidity threshold (L, M, H) 6.8” value is listed as “M (moderate solubility if the threshold concentration is 31.3 μM to 250 μM)”; the “turbidity threshold (L, M, H) 1.4” value is reported as “H (high solubility if the threshold concentration is >250 μM)”. Besides, the pIC50 in data set [5] is less than 5.00. The pIC50 in data set [6] is less than 5.00.
For the compound `CCCS(=O)(=O)Nc1ccc(F)c(C(=O)c2c[nH]c3ncc(-c4cncnc4)cc23)c1F` [P-2162, Propane-1-sulfonic acid [2,4-difluoro-3-(5-pyrimidin-5-yl-1H-pyrrolo[2,3-b]pyridine-3-carbonyl)-phenyl]-amide], the pIC50 in data set [1] was greater than 7.00. This compound also showed a pIC50 in data set [2] greater than 8.00. Moreover, the inhibition in vivo at 10 mg/kg in data set [3] was found to be 17%. Besides, in data set [4], the “turbidity threshold (L, M, H) 7.4” value was “M (moderate solubility if the threshold concentration is 31.3 μM to 250 μM)”; the “turbidity threshold (L, M, H) 4.5” value was “M (moderate solubility if the threshold concentration is 31.3 μM to 250 μM)”; the “turbidity threshold (L, M, H) 6.8” value is “M (moderate solubility if the threshold concentration is 31.3 μM to 250 μM)”; the “turbidity threshold (L, M, H) 1.4” value is recorded as “M (moderate solubility if the threshold concentration is 31.3 μM to 250 μM)”. The pIC50 in data set [5] is 5.00 to 5.30. Further, the pIC50 in data set [6] was greater than 5.30.
On to `CCCS(=O)(=O)Nc1ccc(F)c(C(=O)c2c[nH]c3ncc(-c4ccc(OCCCN(C)C)nc4)cc23)c1F` [P-2178, Propane-1-sulfonic acid (3-{5-[6-(3-dimethylamino-propoxy)-pyridin-3-yl]-1H-pyrrolo[2,3-b]pyridine-3-carbonyl}-2,4-difluoro-phenyl)-amide], for which the pIC50 is greater than 8.00 in data set [1], greater than 8.00 in data set [2], less than 5.00 in data set [5] and greater than 5.30 in data set [6]. The compound further gave an inhibition in vivo at 10 mg/kg in data set [3] of 0%. Besides, the “turbidity threshold (L, M, H) 7.4” value in data set [4] is listed as “L (low solubility if the threshold concentration is <31.3 04)”. In addition, in data set [4], the “turbidity threshold (L, M, H) 4.5” value was “M (moderate solubility if the threshold concentration is 31.3 μM to 250 μM)”. Also, in data set [4], the “turbidity threshold (L, M, H) 6.8” value is on record as “L (low solubility if the threshold concentration is <31.3 04)”. Moreover, the “turbidity threshold (L, M, H) 1.4” value in data set [4] is “H (high solubility if the threshold concentration is >250 μM)”.
On to `CCCS(=O)(=O)Nc1ccc(F)c(C(=O)c2c[nH]c3ncc(-c4cnc(C)nc4)cc23)c1F` [P-2211, Propane-1-sulfonic acid {2,4-difluoro-3-[5-(2-methyl-pyrimidin-5-yl)-1H-pyrrolo[2,3-b]pyridine-3-carbonyl]-phenyl}-amide], for which the negative-log IC50 (pIC50) was greater than 8.00 in data set [1], greater than 8.00 in data set [2], less than 5.00 in data set [5] and less than 5.00 in data set [6]. 10 mg/kg produced 0% inhibition in vivo in data set [3]. The “turbidity threshold (L, M, H) 7.4” value in data set [4] is listed as “M (moderate solubility if the threshold concentration is 31.3 μM to 250 μM)”. For the same compound, in data set [4], the “turbidity threshold (L, M, H) 4.5” value is reported as “M (moderate solubility if the threshold concentration is 31.3 μM to 250 μM)”. The “turbidity threshold (L, M, H) 6.8” value in data set [4] is on record as “M (moderate solubility if the threshold concentration is 31.3 μM to 250 μM)”. Also, the “turbidity threshold (L, M, H) 1.4” value in data set [4] is given as “M (moderate solubility if the threshold concentration is 31.3 μM to 250 μM)”.
As for `CCCS(=O)(=O)Nc1ccc(F)c(C(=O)c2c[nH]c3ncc(-c4ccc(OCCCN5CCCC5)nc4)cc23)c1F` [P-2235, Propane-1-sulfonic acid (2,4-difluoro-3-{5-[6-(3-pyrrolidin-1-yl-propoxy)-pyridin-3-yl]-1H-pyrrolo[2,3-b]pyridine-3-carbonyl}-phenyl)-amide], the pIC50 was greater than 8.00 in data set [7]; greater than 8.00 in data set [1]; greater than 8.00 in data set [2]; less than 5.00 in data set [5]; less than 5.00 in data set [6]. The “turbidity threshold (L, M, H) 7.4” value in data set [4] was “L (low solubility if the threshold concentration is <31.3 04)”. Further, the “turbidity threshold (L, M, H) 4.5” value in data set [4] is “M (moderate solubility if the threshold concentration is 31.3 μM to 250 μM)”. In data set [4], the “turbidity threshold (L, M, H) 6.8” value is recorded as “L (low solubility if the threshold concentration is <31.3 04)”. Further, in data set [4], the “turbidity threshold (L, M, H) 1.4” value is on record as “L (low solubility if the threshold concentration is <31.3 04)”.
In the case of `CCCS(=O)(=O)Nc1ccc(F)c(C(=O)c2c[nH]c3ncc(-c4ccc(OCCCN5CCOCC5)nc4)cc23)c1F` [P-2236, Propane-1-sulfonic acid (2,4-difluoro-3-{5-[6-(3-morpholin-4-yl-propoxy)-pyridin-3-yl]-1H-pyrrolo[2,3-b]pyridine-3-carbonyl}-phenyl)-amide], the pIC50 in data set [7] is greater than 8.00; in data set [1] it was greater than 8.00; in data set [2], greater than 8.00; in data set [5], greater than 5.30; in data set [6], 5.00 to 5.30. The “turbidity threshold (L, M, H) 7.4” value in data set [4] is listed as “L (low solubility if the threshold concentration is <31.3 04)”. In addition, in data set [4], the “turbidity threshold (L, M, H) 4.5” value was “M (moderate solubility if the threshold concentration is 31.3 μM to 250 μM)”. The “turbidity threshold (L, M, H) 6.8” value in data set [4] is given as “L (low solubility if the threshold concentration is <31.3 04)”. For the same compound, the “turbidity threshold (L, M, H) 1.4” value in data set [4] was “M (moderate solubility if the threshold concentration is 31.3 μM to 250 μM)”.
For `CCCS(=O)(=O)Nc1cccc(C(=O)c2c[nH]c3ncc(-c4cnc(OC)nc4)cc23)c1F` [P-2407, Propane-1-sulfonic acid {2-fluoro-3-[5-(2-methoxy-pyrimidin-5-yl)-1H-pyrrolo[2,3-b]pyridine-3-carbonyl]-phenyl}-amide], the pIC50 in data set [7] was greater than 8.00; in data set [1], greater than 7.00; in data set [2] it was greater than 8.00; in data set [5] it was less than 5.00; in data set [6], less than 5.00. For the same compound, the “turbidity threshold (L, M, H) 7.4” value in data set [4] was “L (low solubility if the threshold concentration is <31.3 04)”. Besides, the “turbidity threshold (L, M, H) 4.5” value in data set [4] was “L (low solubility if the threshold concentration is <31.3 04)”. Also, in data set [4], the “turbidity threshold (L, M, H) 6.8” value is “L (low solubility if the threshold concentration is <31.3 04)”. The “turbidity threshold (L, M, H) 1.4” value in data set [4] is given as “L (low solubility if the threshold concentration is <31.3 04)”.
In the case of `CCCS(=O)(=O)Nc1cccc(C(=O)c2c[nH]c3ncc(-c4cnc(N(C)C)nc4)cc23)c1F` [P-2408, Propane-1-sulfonic acid {3-[5-(2-dimethylamino-pyrimidin-5-yl)-1H-pyrrolo[2,3-b]pyridine-3-carbonyl]-2-fluoro-phenyl}-amide], the negative logarithm of the IC50 (pIC50) in data set [7] is greater than 8.00; in data set [1] it was greater than 8.00; in data set [2], greater than 7.00; in data set [5] it was less than 5.00; in data set [6] it was less than 5.00. The “turbidity threshold (L, M, H) 7.4” value in data set [4] was “L (low solubility if the threshold concentration is <31.3 04)”. Moreover, the “turbidity threshold (L, M, H) 4.5” value in data set [4] is “L (low solubility if the threshold concentration is <31.3 04)”. The “turbidity threshold (L, M, H) 6.8” value in data set [4] is reported as “L (low solubility if the threshold concentration is <31.3 04)”. The “turbidity threshold (L, M, H) 1.4” value in data set [4] is “L (low solubility if the threshold concentration is <31.3 04)”.
